Data: patent US20110158944A1, “BRAF BIOMARKERS” (priority 2007, published 2011)
Where two headings read alike, the source gives them in different places.

Legend:
Experiment in all cases: Cell proliferation IC50 (Cell Titer Glo)
Assay type in all cases: cell-based
Daudi = settings: Homo sapiens, 96 h, read-out: IC50 cell proliferation
Procedure: (§1) IC50 Cell proliferation measurements. Cell proliferation was assessed in the 41 tumor cell lines set forth in Table 2 after 4 days of continuous exposure to either the ERK1/2 inhibitor, compound a or the MEK inhibitor compound b (PD0325901) using Promega Cell Titer Glo reagent (Promega Corp, Madison, Wis.). Promega's CellTiter-Glo™ Luminescent Cell Viability Assay is a sensitive method for assaying cell proliferation using a stable form of luciferase to measure ATP as an indicator of viable cells. This reagent allows a homogeneous method of determining cell number by quantitation of ATP. The luciferase luminescent signal produced is proportional to the number of viable cells present in culture.
(§2) A 1000× compound dose response curve, containing 8 dilutions of each compound, was prepared on a 96-well plate. Compounds were diluted in 100% DMSO to the following (1000×) concentrations: compound b: 1000 μM, 333 μM, 111 μM, 37 μM, 12 μM, 4.1 μM, 1.4 μM and 0.5 μM; compound a: 3000 μM, 1000 μM, 333 μM, 111 μM, 37 μM, 12 μM, 4.1 μM and 1.4 μM. This compound source plate was sealed and kept frozen between uses.
(§3) Cells were grown in RPMI 1640 medium supplemented with 10% Fetal Bovine Serum, 2 mM Glutamine and non-essential amino acids or DMEM/F12 Media containing the same supplements. On day zero, cells were trypsinized, counted and plated into wells of a 96-well Wallac TC Isoplate (Perkin-Elmer Wallac, Gaithersburg, Md.) at a density of 1500-2000 cells per well in 50 μl of complete media. An additional 6-8 replicate well of the cells at the same density were plated on a separate Wallac TC Isoplate. This plate was developed on day 1 to determine the cell-growth baseline.
(§4) On day 1 of treatment, compound was diluted to 2× in media and immediately added to the cells as follows: one ml of media was added to each well of a deep-well 96-well plate and 2 μl of 1000× compound was added with mixing to make 2× compound in media. 50 μl of the media containing 2× compound was added to the cell plates in duplicate points so the final concentrations for each well were as outlined in Table 1. The plates were then returned to a 37° C. incubator and left undisturbed for 4 days. The day 1 (baseline) plates were developed by first adding 50 μl media (without compound) to bring the volume in each well to 100 μl, then adding 100 μl of Cell Titer Glo reagent (as below).
(§5) After four days of treatment, the plates were developed with Cell Titer Glo (CTG) reagent (Promega Corp.; Madison, Wis.). Reagent was reconstituted as described in the product insert. 100 μl of reagent was added to all treatment and control wells and the plates were gently shaken for 5 minutes then incubated an additional 5 minutes before reading in an Analyst AD (Molecular Devices Corporation; Sunnyvale, Calif.) using the Luminescence settings.
(§6) Data was analyzed in Excel using XLfit 4.2, fit model #205 (Dose Response One Site)

H716 = settings: Homo sapiens, NCI-H716, 96 h, read-out: IC50 cell proliferation
Procedure: as §1, §2, §3, §4, §5, §6

SK-Mel-31 = settings: Homo sapiens, 96 h, read-out: IC50 cell proliferation
Procedure: as §1, §2, §3, §4, §5, §6

SJCRH30 = settings: Homo sapiens, 96 h, read-out: IC50 cell proliferation
Procedure: as §1, §2, §3, §4, §5, §6

N-87 = settings: Homo sapiens, 96 h, read-out: IC50 cell proliferation
Procedure: as §1, §2, §3, §4, §5, §6

Malme 3M = settings: Homo sapiens, 96 h, read-out: IC50 cell proliferation
Procedure: as §1, §2, §3, §4, §5, §6

Jurkat = settings: Homo sapiens, 96 h, read-out: IC50 cell proliferation
Procedure: as §1, §2, §3, §4, §5, §6

HT-144 = settings: Homo sapiens, read-out: IC50 cell proliferation
Procedure: as §1, §2, §3, §4, §5, §6

BxPc-3 = settings: Homo sapiens, read-out: IC50 cell proliferation
Procedure: as §1, §2, §3, §4, §5, §6

BHT 101 = settings: Homo sapiens, read-out: IC50 cell proliferation
Procedure: as §1, §2, §3, §4, §5, §6

Hs294T = settings: Homo sapiens, Hs 294T, 96 h, read-out: IC50 cell proliferation
Procedure: as §1, §2, §3, §4, §5, §6

IGROV-1 = settings: Homo sapiens, read-out: IC50 cell proliferation
Procedure: as §1, §2, §3, §4, §5, §6

A673 = settings: Homo sapiens, read-out: IC50 cell proliferation
Procedure: as §1, §2, §3, §4, §5, §6

MB-453 = settings: Homo sapiens, 96 h, read-out: IC50 cell proliferation
Procedure: as §1, §2, §3, §4, §5, §6

U-937 = settings: Homo sapiens, read-out: IC50 cell proliferation
Procedure: as §1, §2, §3, §4, §5, §6

LOX = settings: Homo sapiens, 96 h, read-out: IC50 cell proliferation
Procedure: as §1, §2, §3, §4, §5, §6

Colo-205 = settings: Homo sapiens, read-out: IC50 cell proliferation
Procedure: as §1, §2, §3, §4, §5, §6

[1] = Leukemia, BRAF V600V Wild type, 4 days continuous exposure

## O=C(NOC[C@H](O)CO)c1ccc(F)c(F)c1Nc1ccc(I)cc1F [cpd. b, PD0325901]
Daudi
  IC50: 1000 nM
H716
  IC50: 164 nM
SK-Mel-31
  IC50: 18 nM
SJCRH30
  IC50: 1000 nM
N-87
  IC50: 64 nM
Malme 3M; Malme-3M
  IC50: 10 nM
Jurkat
  IC50: 1000 nM
HT-144; HT-144, 96 h
  IC50: 10 nM
BxPc-3; BXPC-3, 96 h
  IC50: 119 nM
BHT 101; BHT-101, 96 h
  IC50: 10 nM
Hs294T
  IC50: 71 nM
IGROV-1; IGROV-1, 96 h
  IC50: 39 nM
A673; A673, 96 h
  IC50: 1000 nM
MB-453
  IC50: 1000 nM
U-937; U-937, 96 h
  IC50: 1000 nM
LOX
  IC50: 57 nM
Colo-205; COLO 205, 96 h
  IC50: 5 nM

## O=C(Nc1ccc2[nH]nc(-c3ccncc3)c2c1)C1CCN(CC(=O)N2CCN(c3ccc(-c4ncccn4)cc3)CC2)C1 (stereo not shown) [cpd. a]
Daudi; [1]
  IC50: > 3000 nM
H716; H716, Colon, BRAF V600V Wild type, 4 days continuous exposure
  IC50: 334 nM
SK-Mel-31; SK-Mel-31, Melanoma, BRAF V600E Heterozygous, 4 days continuous exposure
  IC50: 150 nM
SJCRH30; SJCRH30, Rhabdomyosarcoma, BRAF V600V Wild type, 4 days continuous exposure
  IC50: 2000 nM
N-87; N-87, Gastric, BRAF V600V Wild type, 4 days continuous exposure
  IC50: 307 nM
Malme 3M; Malme 3M, Melanoma, BRAF V600E Homozygous, 4 days continuous exposure
  IC50: 10 nM
Jurkat; [1]
  IC50: > 3000 nM
HT-144; 96 h, HT-144, Melanoma, BRAF V600E Homozygous, 4 days continuous exposure
  IC50: 60 nM
BxPc-3; 96 h, BxPc-3, Pancreas, BRAF V600V Wild type, 4 days continuous exposure
  IC50: 184 nM
BHT 101; 96 h, BHT 101, Thyroid, BRAF V600E Heterozygous, 4 days continuous exposure
  IC50: 300 nM
Hs294T; Hs294T, Melanoma, BRAF V600E Heterozygous, 4 days continuous exposure
  IC50: 1720 nM
IGROV-1; 96 h, IGROV-1, Ovarian, BRAF V600V Wild type, 4 days continuous exposure
  IC50: 146 nM
A673; 96 h, A673, Rhabdomyosarcoma, BRAF V600E Heterozygous, 4 days continuous exposure
  IC50: > 3000 nM
MB-453; MB-453, Breast, BRAF V600E Heterozygous, 4 days continuous exposure
  IC50: 672 nM
U-937; 96 h, U-937, Leukemia, BRAF V600V Wild type, 4 days continuous exposure
  IC50: > 3000 nM
LOX; Melanoma, BRAF V600E Homozygous, 4 days continuous exposure
  IC50: 100 nM
Colo-205; 96 h, Colo-205, Colon, BRAF V600E Homozygous, 4 days continuous exposure
  IC50: 36 nM
